According to patent publication US7247617B2, “Sixteen-member macrolide antiinfective agents” (Kosan Biosciences Incorporated, priority 2004, dated 2007):

Columns and labels:
S. pneumoniae = assay: Biological activity against bacterial strains: S. pneumoniae; format: cell-based, Streptococcus pneumoniae; parameters: Biological Activity, S. pneumoniae ATCC6301 / Biological Activity, S. pneumoniae ATCC700671 / Biological Activity, S. pneumoniae ATCC700676* / Biological Activity, S. pneumoniae ATCC700677* / Biological Activity, S. pneumoniae ATCC700905* / Biological Activity, S. pneumoniae ATCC700906* / Biological Activity, S. pneumoniae ATCC49619: unit not given here; conditions: for Biological Activity, S. pneumoniae ATCC6301: strain ATCC6301; for Biological Activity, S. pneumoniae ATCC49619: strain ATCC49619; for Biological Activity, S. pneumoniae ATCC700671: strain ATCC700671; for Biological Activity, S. pneumoniae ATCC700676*: strain ATCC700676, macrolide resistant strain; for Biological Activity, S. pneumoniae ATCC700677*: strain ATCC700677, macrolide resistant strain; for Biological Activity, S. pneumoniae ATCC700905*: strain ATCC700905, macrolide resistant strain; for Biological Activity, S. pneumoniae ATCC700906*: strain ATCC700906, macrolide resistant strain
S. aureus = assay: Biological activity against bacterial strains: S. aureus; format: cell-based, Staphylococcus aureus; parameters: unit not given here; conditions: for Biological Activity, S. aureus ATCC6538p: strain ATCC6538p; for Biological Activity, S. aureus ATCC14154*: strain ATCC14154, macrolide resistant strain; for Biological Activity, S. aureus ATCC29213: strain ATCC29213; for Biological Activity, S. aureus ATCC33591*: strain ATCC33591, macrolide resistant strain; for Biological Activity, S. aureus ATCCBAA-39*: strain ATCCBAA-39, macrolide resistant strain; for Biological Activity, S. aureus ATCCBAA-44*: strain ATCCBAA-44, macrolide resistant strain
S. epidermidis = assay: Biological activity against bacterial strains: S. epidermidis; format: cell-based, Staphylococcus epidermidis; conditions: strain ATCC12228
E. faecalis = assay: Biological activity against bacterial strains: E. faecalis; format: cell-based, Enterococcus faecalis; conditions: strain ATCC51575
Haemophilus Influenzae = assay: H. influenzae Activity; format: cell-based; conditions: for potency against H. influenzae (in words): compared to compound A, OMT and Ketek

| SMILES | Biological Activity, S. pneumoniae ATCC6301 (S. pneumoniae) | Biological Activity, S. pneumoniae ATCC49619 (S. pneumoniae) | Biological Activity, S. pneumoniae ATCC700671 (S. pneumoniae) | Biological Activity, S. pneumoniae ATCC700676* (S. pneumoniae) | Biological Activity, S. pneumoniae ATCC700677* (S. pneumoniae) | Biological Activity, S. pneumoniae ATCC700905* (S. pneumoniae) | Biological Activity, S. pneumoniae ATCC700906* (S. pneumoniae) | Biological Activity, S. aureus ATCC6538p (S. aureus) | Biological Activity, S. aureus ATCC14154* (S. aureus) | Biological Activity, S. aureus ATCC29213 (S. aureus) | Biological Activity, S. aureus ATCC33591* (S. aureus) | Biological Activity, S. aureus ATCCBAA-39* (S. aureus) | Biological Activity, S. aureus ATCCBAA-44* (S. aureus) | Biological Activity, S. epidermidis ATCC12228 (S. epidermidis) | Biological Activity, E. faecalis ATCC51575 (E. faecalis) | H. influenzae Activity, strain ATCC9006 (Haemophilus Influenzae) | H. influenzae Activity, strain ATCC49766 (Haemophilus Influenzae) | H. influenzae Activity, strain EH001 (Haemophilus Influenzae) | H. influenzae Activity, strain EH002 (Haemophilus Influenzae) | H. influenzae Activity, strain EH003 (Haemophilus Influenzae) | other results |
| --- | --- | --- | --- | --- | --- | --- | --- | --- | --- | --- | --- | --- | --- | --- | --- | --- | --- | --- | --- | --- | --- |
| CO[C@@H]1[C@@H](OC2OC(C)C(O)C(N(C)C)C2O)[C@@H](CC=O)C[C@@H](C)C(=N/OCCCOc2ccc3ncccc3c2)/C=C/C=C/C[C@@H](C)OC(=O)C[C@H]1O (some centres unmarked) [Compound HH] | 0.025 | 0.025 | 0.025 | 0.025 | 3.12 | 0.025 | >12.5 | 0.2 | 0.78 | 3.12 | >12.5 | >12.5 | >12.5 | 0.78 | >12.5 | – | – | – | – | – | – |
| CCC1OC(=O)CC(O)C(C)C(OC2OC(C)C(O)C(N(C)C)C2O)C(CC=O)CC(C)C(=NOCC=Cc2cnc3ccccc3c2)C=CC(C)=CC1CO (single isomer, unassigned) [Compound G] | 0.025 | 0.025 | 0.025 | 0.049 | >12.5 | 0.049 | >12.5 | 0.20 | 0.78 | 0.78 | >12.5 | >12.5 | >12.5 | 0.39 | >12.5 | – | – | – | – | – | – |
| CCC1OC(=O)CC(O)C(C)C(OC2OC(C)C(O)C(N(C)C)C2O)C(CCN2CC(C)CC(C)C2)CC(C)C(=NOCCCOc2ccc3ncccc3c2)C=CC(C)=CC1CO (centres unmarked) [Compound S] | 6.25 | 6.25 | 6.25 | 12.5 | >12.5 | 12.5 | >12.5 | >12.5 | >12.5 | >12.5 | >12.5 | >12.5 | >12.5 | >12.5 | >12.5 | – | – | – | – | – | – |
| CCC1OC(=O)CC(O)C(C)C(OC2OC(C)C(O)C(N(C)C)C2O)C(CCN2CC(C)CC(C)C2)CC(C)C(=NOCCCOc2ccc3ncccc3c2)C=CC(C)=CC1COC1OC(C)C(O)C(OC)C1OC (single isomer, unassigned) [Compound K] | 0.01 | 0.098 | 0.025 | 0.049 | 0.049 | 0.20 | >12.5 | 0.20 | 0.39 | 0.39 | >12.5 | >12.5 | >12.5 | 0.39 | >12.5 | – | – | – | – | – | – |
| CCC1OC(=O)CC(O)C(C)C(OC2OC(C)C(O)C(N(C)C)C2O)C(CC=O)CC(C)C(=NOCCCOc2ccc3ncccc3c2)C=CC(C)=CC1COC1OC(C)C(O)C(OC)C1OC (single isomer, unassigned) [Compound BB] | 0.025 | 0.049 | 0.049 | 0.049 | 0.025 | 0.025 | >12.5 | 0.2 | 0.78 | 0.39 | >12.5 | >12.5 | >12.5 | 0.39 | >12.5 | – | – | – | – | – | – |
| CCC1OC(=O)CC(O)C(C)C(OC2OC(C)C(O)C(N(C)C)C2O)C(CC=O)CC(C)C(=NOCCCOc2ccc3ncccc3c2)C=CC(C)=CC1CN(C)C (single isomer, unassigned) [Compound Y] | 0.025 | 0.025 | 0.098 | 0.025 | >12.5 | 0.025 | >12.5 | – | – | – | – | – | – | – | – | 1.56 | 3.12 | 3.12 | 6.25 | 3.12 | activity / potency against S. pneumoniae (in words) (S. pneumoniae): essentially remained unchanged; potency against H. influenzae (in words) (Haemophilus Influenzae): improved potency against H. influenzae, to a level similar to OMT and Ketek™ |
| CC[C@H]1OC(=O)[C@H](C)C(=O)[C@H](C)[C@@H](O[C@@H]2O[C@H](C)C[C@H](N(C)C)[C@H]2O)[C@](C)(OC)C[C@@H](C)C(=O)[C@H](C)[C@H]2N(CCCCn3cnc(-c4cccnc4)c3)C(=O)O[C@]12C [Ketek, telithromycin, reference compound] | – | – | – | – | – | – | – | – | – | – | – | – | – | – | – | 1.56 | 3.12 | 1.56 | 6.25 | 1.56 | – |
| CCC1OC(=O)CC(O)C(C)C(OC2OC(C)C(O)C(N(C)C)C2O)C(CC=O)CC(C)C(=NOCCCOc2ccc3ncccc3c2)C=CC(C)=CC1CN(C)C (single isomer, unassigned) [Compound Z] | 0.025 | 0.049 | 0.049 | 0.025 | >12.5 | 0.025 | >12.5 | – | – | – | – | – | – | – | – | 1.56 | 3.12 | 3.12 | 3.12 | 1.56 | activity / potency against S. pneumoniae (in words) (S. pneumoniae): essentially remained unchanged; potency against H. influenzae (in words) (Haemophilus Influenzae): improved potency against H. influenzae, to a level similar to OMT and Ketek™ |
| CC[C@H]1OC(=O)[C@H](C)[C@@H](O[C@H]2C[C@@](C)(OC)[C@@H](O)[C@H](C)O2)[C@H](C)[C@@H](O[C@@H]2O[C@H](C)C[C@H](N(C)C)[C@H]2O)[C@](C)(O)C[C@@H](C)C(=O)[C@H](C)[C@@H](O)[C@]1(C)O [Ery A, erythromycin A, reference compound] | 0.025 | 0.049 | 0.049 | 6.25 | 6.25 | 3.12 | – | 0.098 | – | 0.20 | – | – | – | 0.20 | – | 1.56 | 6.25 | 3.12 | 6.25 | 3.12 | – |
